Test results taken from ChEMBL document CHEMBL1142803, “Synthesis and in vitro study of novel 7-O-acyl derivatives of Oroxylin A as antibacterial agents” (2005).
≈ marks a conversion by molar mass, not a printed value.

How the values were obtained:
[1] = test system: Staphylococcus aureus; assay: Minimum inhibitory concentration against gram positive Staphylococcus aureus (MTCC 96) using broth dilution method; format: functional
[2] = test system: Bacillus subtilis; assay: Minimum inhibitory concentration against gram positive Bacillus subtilis (MTCC 441) using broth dilution method; format: functional
[3] = test system: Bacillus sp.; assay: Minimum inhibitory concentration against gram positive Bacillus sphaericus (MTCC 11) using broth dilution method; format: functional, Lysinibacillus sphaericus; details: Bacillus sp. (in: firmicutes)
[4] = test system: Klebsiella aerogenes; assay: Minimum inhibitory concentration against gram negative Klebsiella aerogenes (MTCC 39) using broth dilution method; format: functional
[5] = Minimum inhibitory concentration against gram negative Chromobacterium violaceum (MTCC 2656) using broth dilution method; format: functional

SMILES	MIC [1] [µg/mL]	MIC [2] [µg/mL]	MIC [3] [µg/mL]	MIC [4] [µg/mL]	MIC [5] [µg/mL]
CCCC(=O)Oc1cc2oc(-c3ccccc3)cc(=O)c2c(O)c1OC	25 (≈ 70.6 µM)	25 (≈ 70.6 µM)	6.25 (≈ 17.6 µM)	25 (≈ 70.6 µM)	6.25 (≈ 17.6 µM)
COc1c(OC(C)=O)cc2oc(-c3ccccc3)cc(=O)c2c1O	50 (≈ 153 µM)	12.5 (≈ 38.3 µM)	25 (≈ 76.6 µM)	50 (≈ 153 µM)	25 (≈ 76.6 µM)
CCCCCCCCCCCCCCCCCC(=O)Oc1cc2oc(-c3ccccc3)cc(=O)c2c(O)c1OC	25 (≈ 45.4 µM)	12.5 (≈ 22.7 µM)	12.5 (≈ 22.7 µM)	25 (≈ 45.4 µM)	12.5 (≈ 22.7 µM)
CCCCCCCCCCCCCC(=O)Oc1cc2oc(-c3ccccc3)cc(=O)c2c(O)c1OC	50 (≈ 101 µM)	25 (≈ 50.5 µM)	12.5 (≈ 25.3 µM)	50 (≈ 101 µM)	25 (≈ 50.5 µM)
COc1cc(C(=O)Oc2cc3oc(-c4ccccc4)cc(=O)c3c(O)c2OC)cc(OC)c1OC	25 (≈ 52.3 µM)	12.5 (≈ 26.1 µM)	25 (≈ 52.3 µM)	12.5 (≈ 26.1 µM)	6.25 (≈ 13.1 µM)
CCOc1cc2oc(-c3ccccc3)cc(=O)c2c(O)c1OC	50 (≈ 160 µM)	25 (≈ 80 µM)	25 (≈ 80 µM)	25 (≈ 80 µM)	25 (≈ 80 µM)
CCOc1cc2oc(-c3ccccc3)cc(=O)c2c(OCC)c1OC	25 (≈ 73.4 µM)	25 (≈ 73.4 µM)	12.5 (≈ 36.7 µM)	25 (≈ 73.4 µM)	25 (≈ 73.4 µM)
CCCCCCCCCCCCCCCC(=O)Oc1cc2oc(-c3ccccc3)cc(=O)c2c(O)c1OC	25 (≈ 47.8 µM)	25 (≈ 47.8 µM)	25 (≈ 47.8 µM)	12.5 (≈ 23.9 µM)	25 (≈ 47.8 µM)
CCCCCCCCCCCC(=O)Oc1cc2oc(-c3ccccc3)cc(=O)c2c(O)c1OC	12.5 (≈ 26.8 µM)	25 (≈ 53.6 µM)	12.5 (≈ 26.8 µM)	12.5 (≈ 26.8 µM)	25 (≈ 53.6 µM)
COc1c(OC(=O)C/C=C/c2ccccc2)cc2oc(-c3ccccc3)cc(=O)c2c1O	12.5 (≈ 29.2 µM)	25 (≈ 58.4 µM)	12.5 (≈ 29.2 µM)	12.5 (≈ 29.2 µM)	25 (≈ 58.4 µM)
COc1c(OC(=O)c2ccc(C)cc2)cc2oc(-c3ccccc3)cc(=O)c2c1O	50 (≈ 124 µM)	50 (≈ 124 µM)	25 (≈ 62.1 µM)	25 (≈ 62.1 µM)	50 (≈ 124 µM)
COc1c(OC(=O)c2ccccc2)cc2oc(-c3ccccc3)cc(=O)c2c1O	25 (≈ 64.4 µM)	12.5 (≈ 32.2 µM)	6.25 (≈ 16.1 µM)	25 (≈ 64.4 µM)	12.5 (≈ 32.2 µM)
COc1c(OC(=O)c2ccccc2Cl)cc2oc(-c3ccccc3)cc(=O)c2c1O	12.5 (≈ 29.6 µM)	25 (≈ 59.1 µM)	25 (≈ 59.1 µM)	25 (≈ 59.1 µM)	25 (≈ 59.1 µM)
CCCCCC(=O)Oc1cc2oc(-c3ccccc3)cc(=O)c2c(O)c1OC	25 (≈ 65.4 µM)	25 (≈ 65.4 µM)	12.5 (≈ 32.7 µM)	25 (≈ 65.4 µM)	25 (≈ 65.4 µM)
CN[C@@H]1[C@H](O[C@H]2[C@H](O[C@H]3[C@H](O)[C@@H](O)[C@H](N=C(N)N)[C@@H](O)[C@@H]3N=C(N)N)O[C@@H](C)[C@]2(O)C=O)O[C@@H](CO)[C@H](O)[C@H]1O (stereo in doubt) [STREPTOMYCIN]	6.25 (≈ 10.7 µM)	6.25 (≈ 10.7 µM)	12.5 (≈ 21.5 µM)	1.56 (≈ 2.69 µM)	3.12 (≈ 5.37 µM)
COc1cc2oc(-c3ccccc3)cc(=O)c2c(OC)c1OC [BAICALEIN TRIMETHYL ETHER]	25 (≈ 80 µM)	50 (≈ 160 µM)	25 (≈ 80 µM)	50 (≈ 160 µM)	25 (≈ 80 µM)
COc1cc2oc(-c3ccccc3)cc(=O)c2c(O)c1OC [MOSLOFLAVONE]	50 (≈ 168 µM)	25 (≈ 83.8 µM)	12.5 (≈ 41.9 µM)	50 (≈ 168 µM)	25 (≈ 83.8 µM)
COc1c(O)cc2oc(-c3ccccc3)cc(=O)c2c1O [OROXYLIN A]	50 (≈ 176 µM)	50 (≈ 176 µM)	25 (≈ 87.9 µM)	50 (≈ 176 µM)	25 (≈ 87.9 µM)
CC1(C)S[C@@H]2[C@H](NC(=O)COc3ccccc3)C(=O)N2[C@H]1C(=O)O [PENICILLIN V]	1.56 (≈ 4.46 µM)	1.56 (≈ 4.46 µM)	3.12 (≈ 8.92 µM)	6.25 (≈ 17.8 µM)	12.5 (≈ 35.7 µM)
